For 10 molecules, IC50 and EC50 results are on record in ChEMBL document CHEMBL1132664, “C32-O-phenalkyl ether derivatives of the immunosuppressant ascomycin: a tether length study” (Bioorg Med Chem Lett, 1999).

The species named for one experiment is Mus musculus. Description: In vitro immunosuppressive activity in murine splenic T cells. The format is functional, cell-based. Conditions: T-cell.
Experiment [1] has as its target Peptidyl-prolyl cis-trans isomerase FKBP1A (Homo sapiens, UniProt P62942). Kind of experiment: Effective concentration determined was towards FK506 binding protein 12 by competitive binding assay using [3H]-dihydro FK-506 as radioligand.

Peptidyl-prolyl cis-trans isomerase FKBP1A, sequence (P62942 whole entry): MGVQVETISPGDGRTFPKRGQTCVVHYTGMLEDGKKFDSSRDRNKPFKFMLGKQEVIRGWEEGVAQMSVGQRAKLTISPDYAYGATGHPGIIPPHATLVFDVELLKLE

For the molecule `CC[C@@H]1/C=C(\C)C[C@H](C)C[C@H](OC)[C@H]2O[C@@](O)(C(=O)C(=O)N3CCCC[C@H]3C(=O)O[C@H](/C(C)=C/[C@@H]3CC[C@@H](OCCCc4ccccc4)[C@H](OC)C3)[C@H](C)[C@@H](O)CC1=O)[C@H](C)C[C@@H]2OC`, the midpoint of inhibition in the experiment filed under Mus musculus, the IC50, lay at 3.5 nM. In experiment [1], the concentration giving a half-maximal response (EC50) – broadly, the concentration at which the effect is half-maximal – was 32 nM.
As to `CC[C@@H]1/C=C(\C)C[C@H](C)C[C@H](OC)[C@H]2O[C@@](O)(C(=O)C(=O)N3CCCC[C@H]3C(=O)O[C@H](/C(C)=C/[C@@H]3CC[C@@H](OC(=O)Cc4ccccc4)[C@H](OC)C3)[C@H](C)[C@@H](O)CC1=O)[C@H](C)C[C@@H]2OC`, inhibition in the experiment listed under Mus musculus was half-maximal at 3.5 nM (IC50).
On to `CC[C@@H]1/C=C(\C)C[C@H](C)C[C@H](OC)[C@H]2O[C@@](O)(C(=O)C(=O)N3CCCC[C@H]3C(=O)O[C@H](/C(C)=C/[C@@H]3CC[C@@H](O)[C@H](OC)C3)[C@H](C)[C@@H](O)CC1=O)[C@H](C)C[C@@H]2OC` [ASCOMYCIN], for which the IC50 – broadly, the concentration needed to halve the response being measured – in the experiment listed under Mus musculus stood at 0.69 nM. Compared with the last molecule, the IC50 is about 5.1-fold lower.
Regarding `CC[C@@H]1/C=C(\C)C[C@H](C)C[C@H](OC)[C@H]2O[C@@](O)(C(=O)C(=O)N3CCCC[C@H]3C(=O)O[C@H](/C(C)=C/[C@@H]3CC[C@@H](OCC(=O)c4ccccc4)[C@H](OC)C3)[C@H](C)[C@@H](O)CC1=O)[C@H](C)C[C@@H]2OC`, in the experiment filed under Mus musculus, the IC50 was 0.27 nM.
Turning to `CC[C@@H]1/C=C(\C)C[C@H](C)C[C@H](OC)[C@H]2O[C@@](O)(C(=O)C(=O)N3CCCC[C@H]3C(=O)O[C@H](/C(C)=C/[C@@H]3CC[C@@H](OCCc4ccccc4)[C@H](OC)C3)[C@H](C)[C@@H](O)CC1=O)[C@H](C)C[C@@H]2OC`, in the experiment filed under Mus musculus, the IC50 worked out at 0.61 nM. The molecule further yielded an EC50 in experiment [1] of 9.2 nM.
Regarding `CC[C@@H]1/C=C(\C)C[C@H](C)C[C@H](OC)[C@H]2O[C@@](O)(C(=O)C(=O)N3CCCC[C@H]3C(=O)O[C@H](/C(C)=C/[C@@H]3CC[C@@H](OCC(O)c4ccccc4)[C@H](OC)C3)[C@H](C)[C@@H](O)CC1=O)[C@H](C)C[C@@H]2OC` (some centres undefined), the IC50 in the experiment filed under Mus musculus was found to be 0.18 nM.
As to `C=C(CO[C@@H]1CC[C@@H](/C=C(\C)[C@H]2OC(=O)[C@@H]3CCCCN3C(=O)C(=O)[C@]3(O)O[C@H]([C@@H](OC)C[C@@H](C)C/C(C)=C/[C@@H](CC)C(=O)C[C@H](O)[C@H]2C)[C@@H](OC)C[C@H]3C)C[C@H]1OC)c1ccccc1`, the IC50 in the experiment listed under Mus musculus came to 1 nM. This IC50 is about 5.6-fold higher than that of the molecule before.
`CC[C@@H]1/C=C(\C)C[C@H](C)C[C@H](OC)[C@H]2O[C@@](O)(C(=O)C(=O)N3CCCC[C@H]3C(=O)O[C@H](/C(C)=C/[C@@H]3CC[C@@H](OCc4ccccc4)[C@H](OC)C3)[C@H](C)[C@@H](O)CC1=O)[C@H](C)C[C@@H]2OC` registered an IC50 in the experiment filed under Mus musculus of 3 nM. Further, the EC50 in experiment [1] is 5.3 nM.
In the case of `CC[C@@H]1/C=C(\C)C[C@H](C)C[C@H](OC)[C@H]2O[C@@](O)(C(=O)C(=O)N3CCCC[C@H]3C(=O)O[C@H](/C(C)=C/[C@@H]3CC[C@@H](OCCO)[C@H](OC)C3)[C@H](C)[C@@H](O)CC1=O)[C@H](C)C[C@@H]2OC`, inhibition in the experiment listed under Mus musculus was half-maximal at 4.3 nM (IC50).
Consider `CC[C@@H]1/C=C(\C)C[C@H](C)C[C@H](OC)[C@H]2O[C@@](O)(C(=O)C(=O)N3CCCC[C@H]3C(=O)O[C@H](/C(C)=C/[C@@H]3CC[C@@H](Oc4ccccc4)[C@H](OC)C3)[C@H](C)[C@@H](O)CC1=O)[C@H](C)C[C@@H]2OC`, for which the IC50 in the experiment filed under Mus musculus came to 5.4 nM. A half-maximal response in experiment [1] (EC50) required 12 nM.
